Experimental findings from paper PMC3475094, “Identification Of Small Molecule TRABID Deubiquitinase Inhibitors By Computation-Based Virtual Screen” (BMC Chemical Biology, 2012) are described below.

For orientation: IC50 means the point on the concentration scale where inhibition reaches its midpoint. A high value points to weaker potency in that assay.

The target of this assay is T1, TRABID (Homo sapiens, UniProt Q9UGI0).
T1 construct: gene ZRANB1; full length TRABID
T1 sequence (Q9UGI0 1-708): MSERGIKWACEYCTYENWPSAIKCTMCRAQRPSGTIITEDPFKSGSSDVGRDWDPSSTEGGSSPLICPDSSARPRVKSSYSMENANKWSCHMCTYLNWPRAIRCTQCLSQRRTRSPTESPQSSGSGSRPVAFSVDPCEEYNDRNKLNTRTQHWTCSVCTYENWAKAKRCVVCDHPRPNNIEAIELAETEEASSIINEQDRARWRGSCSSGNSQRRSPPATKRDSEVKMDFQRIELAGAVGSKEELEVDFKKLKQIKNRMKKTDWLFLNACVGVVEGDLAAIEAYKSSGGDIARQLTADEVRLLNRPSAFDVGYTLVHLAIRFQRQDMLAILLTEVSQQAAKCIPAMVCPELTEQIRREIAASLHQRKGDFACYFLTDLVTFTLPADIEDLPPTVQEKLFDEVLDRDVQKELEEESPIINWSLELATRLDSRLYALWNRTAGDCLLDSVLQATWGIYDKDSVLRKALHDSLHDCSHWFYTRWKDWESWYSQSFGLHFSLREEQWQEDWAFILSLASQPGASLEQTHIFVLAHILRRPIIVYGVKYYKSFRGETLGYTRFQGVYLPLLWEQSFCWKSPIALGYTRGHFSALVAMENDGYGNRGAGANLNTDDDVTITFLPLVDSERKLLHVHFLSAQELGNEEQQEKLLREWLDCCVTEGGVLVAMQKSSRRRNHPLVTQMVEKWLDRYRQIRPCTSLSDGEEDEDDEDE
Put plainly: Hexa-K63 ubiquitin cleavage assay, Western blot quantification. The format is biochemical. (In western blotting, separated proteins are transferred to a membrane and probed.)

Structures are written as SMILES.

`Cc1cc(O)c(Cl)cc1O` [compound 29034, NSC29034] showed an IC50 of 7.54 µM.

On to `Oc1cc(Br)c(O)cc1Br` [compound 133363, NSC133363], for which the half-inhibitory concentration (IC50) came out at 7.17 µM.
